From US20050176829A1, “Methods for treating hypothyroidism” (priority 2003, published 2005)
Entries after “also recorded” stand apart in the source; their conditions may differ. Like-named read-outs stand apart in the source and are kept apart here. Marks after values point to notes of the source that are not given here.

Columns and labels:
[1] = Heart rate after daily bolus administration of T3 in rats; format: in vivo, rat; conditions: for T3max−Conmax: max HR T3 minus max HR saline control
[2] = hypothyroid rats, T3 infusion 7.0 μg/d, 1 week; cited from earlier work
clinical = conditions: human, in vivo, metabolic clearance rate (MCR) of T3
[3] = test system: alpha-myosin heavy chain (alpha-MHC)
Experimental: FIG. 3A-3B. […] A: Representative agarose gel showing alpha-MHC hnRNA PCR products stained with ethidium bromide and visualized with ultraviolet light. PCR fragment size is 335 basepairs (bp). B: Quantification of hnRNA alpha-MHC 335 bp fragment from left ventricular RNA shown as a percentage of euthyroid (normal) values for three rats.
FIG. 4. […] Three 200 gram rats per each group.
FIG. 6. […] Hearts were removed after 3-4 days (24 hours after the last injection), and RNA was extracted from the left ventricles. Transcription was measured by quantitation of α-MHC hnRNA. The content of α-MHC hnRNA measured in these hearts is expressed as the percent of euthyroid (100%).
Methods and Materials—Animal Studies. Studies were conducted using adult Sprague-Dawley rats weighing between 180 and 225 g. Thyroidectomies were performed by surgical removal of the thyroid gland. […] After animals were sacrificed, the left ventricle of the heart was immediately frozen in liquid nitrogen and then treated for RNA extraction as previously described (Balkman et al. Endocrinology 130: 1002-6, 1992). Reverse transcription polymerase chain reaction (RT-PCR) assay of total left ventricular RNA for alpha-myosin heavy chain (alpha-MHC) heteronuclear (hn) RNA was carried out as previously described (Danzi and Klein, Thyroid 12(6): 467-72, 2002; Danzi et al. Am J Physiol Heart Circ Physiol. 284(6) :H2255-62, 2003). Results are expressed as means ±SE.
Expression of the cardiac- specific gene alpha-myosin heavy chain (alpha-MHC) is a sensitive indicator of normal cardiac function (Ojamaa et al. CVR&R 23: 20-6, 2002; Danzi et al. Am J Physiol Heart Circ Physiol. 284(6) :H2255-62, 2003; Danzi and Klein, Thyroid 12(6): 467-72, 2002; Ojamma and Klein, Endocrinology 132: 1002-6, 1993).

[4] = rats (Goslings et al.); cited from earlier work
[5] = Serum T3, free T3 and T4 levels in hypothyroid (thyroidectomized) rats after T3 infusion or bolus injection (radioimmunoassay); format: in vivo, rat
Text: FIG. 2. […] Three rats per each group.
Methods and Materials—Animal Studies. […] Results are expressed as means ±SE.

[6] = Serum half-life of T3 after bolus injection in thyroidectomized rats; format: in vivo; conditions: Sprague-Dawley, rat, intravenous, 1 ug
[7] = cited from earlier work
[8] = daily bolus T3 0.8 μg/200 gram rat, day 1
[9] = daily bolus T3 0.8 μg/200 gram rat, day 2
[10] = daily bolus T3 0.8 μg/200 gram rat, day 3
[11] = daily bolus T3 0.8 μg/200 gram rat, day 4
[12] = daily bolus T3 0.8 μg/200 gram rat, day 5
[13] = day 6, no dosing of T3 on this day
[14] = day 7, no dosing of T3 on this day

With `N[C@@H](Cc1cc(I)c(Oc2ccc(O)c(I)c2)c(I)c1)C(=O)O` [T3, triiodothyronine] the “Δ HR” value ([1]; AVG of days 1-7) was 84, the “min HR” value ([1]; AVG of days 1-7, P < 0.001 vs control) was 307^+ and the “max HR” value ([1]; AVG of days 1-7, P < 0.002 vs control) was 390^. The “maximum heart rate versus normal” value ([1]; bolus daily injections of T3 at 0.8 μg) was “increasing maximum heart rate above normal”, the “max HR” value [1, 8] was 345 and the “min HR” value [1, 8] was 270. For the same compound, the “Δ HR” value [1, 8] was 75, the “max HR” value [1, 9] was 370 and the “min HR” value [1, 9] was 315. For the same compound, the “Δ HR” value [1, 9] was 55, the “max HR” value [1, 10] was 385** and the “min HR” value [1, 10] was 320. For the same compound, the “Δ HR” value [1, 10] was 65, the “max HR” value [1, 11] was 410** and the “min HR” value [1, 11] was 320. The “Δ HR” value [1, 11] was 90, the “max HR” value [1, 12] was 415** and the “min HR” value [1, 12] was 300. The “Δ HR” value [1, 12] was 115, the “max HR” value [1, 13] was 425* and the “min HR” value [1, 13] was 300*. The “Δ HR” value [1, 13] was 125, the “max HR” value [1, 14] was 380* and the “min HR” value [1, 14] was 325*. The “Δ HR” value [1, 14] was 65, the “T3max−Conmax” value ([1]; AVG) was 43 and the “T3max−Conmax” value ([1]; day 1) was 0. The “T3max−Conmax” value ([1]; day 2) was 10, the “T3max−Conmax” value ([1]; day 3) was 45 and the “T3max−Conmax” value ([1]; day 4) was 70. For the same compound, the “T3max−Conmax” value ([1]; day 5) was 65, the “T3max−Conmax” value ([1]; day 6 (no T3 dosing)) was 70 and the “T3max−Conmax” value ([1]; day 7 (no T3 dosing)) was 40. The “Heart weight/Body weight” value [2] was 3.64 ± 0.07^a, the clearance (clinical) was ~0.217 mL/min/kg and the “alpha-MHC expression versus normal” value ([3]; hypothyroid rats, T3 infusion 0.25 and 0.5 μg/day) was “normalization of alpha-MHC expression was observed”. For the same compound, the “alpha-myosin HC expression versus normal” value ([3]; hypothyroid rats, bolus daily injections 0.25-0.8 μg T3/day) was “not by bolus daily injections”, the “alpha-myosin HC expression versus normal” value ([3]; hypothyroid rats, constant infusion 0.25-0.8 μg T3/day, 3-4 days) was “restored to normal” and the alpha-MHC cardiac transcription ([3]; thyroidectomized rats, bolus injection 1 μg T3 each day for 2 days) was 60 % of normal. The “alpha-MHC expression (hnRNA)” value ([3]; thyroidectomized rats, single bolus injection of 1 μg T3, time course) was “transient increase in alpha-MHC expression”, the “metabolic clearance rate (MCR) of T3” value [4] was 2.93 mL/min/kg and the concentration at 3 days ([5]; Sprague-Dawley, rat, serum, subcutaneous, 0.25 μg/d) was 0.44 ± 0.03 ng/mL. The concentration at 3 days ([5]; Sprague-Dawley, rat, serum, subcutaneous, 0.8 μg/d) was 0.78 ± 0.06 ng/mL, the concentration at 1 week ([5]; Sprague-Dawley, rat, serum, subcutaneous, 1 μg/d) was 1.32 ± 0.14 ng/mL and the “serum T3 levels versus normal” value ([5]; hypothyroid rats, 0.8 μg daily bolus injection, 24 hours after last injection) was “not effective in restoring serum T3 levels to normal”. The “serum T3 levels versus normal” value ([5]; hypothyroid rats, 0.8 μg/day by subcutaneous miniosmotic pump infusion, blood sampled at 72) was “restored to normal; also recorded: restores serum T3 levels to about normal”, the “serum T3 levels versus normal” value ([5]; hypothyroid rats, T3 infusion 0.25 μg/day and 0.5 μg/day) was “elevates serum T3 above levels observed in thyroidectomized animals, but does not fully restore serum T3 levels to normal” and the “serum T3 levels versus normal” value ([5]; hypothyroid rats, T3 infusion at doses above 0.8 μg/day) was “elevated serum T3 levels above normal”. For the same compound, the “serum T3 levels versus normal” value ([5]; thyroidectomized rats, single bolus injection 1 μg T3/day for 7 days) was “failed to restore serum T3 levels to normal”, the half-life [6] was 7 h and the “metabolic clearance rate (MCR) of T3” value ([7]; humans (Chopra and Sabatino)) was 24 L/day/70 kg. For the same compound, the “metabolic clearance rate (MCR) of T3” value ([7]; hypothyroid humans (Bianchi et al.)) was 11.4 L/day/m^2.
